Where two headings read alike, the source gives them in different places.
How the values were obtained:
Isospora suis [1] = settings: experimentally infected piglets; cited from earlier work
[2] = Acute oral toxicity (LD50 rat, oral); assay type: in vivo; settings: for NOEL: LD50 rat, oral investigation; for LD50 rat, oral: printed in column Dosage (NOEL)
Procedure: (§1) The following toxicity data were determined in accordance with OECD/GLP guidelines, in particular OECD 414, 401 and 408. The investigations of the teratogenicity of the compounds was carried out in accordance with the US guidelines—“Teratogenicity study”, Guidelines for Registering Pesticides in the U.S.A., U.S. Environmental Protection Agency, Hazard Evaluation: Human and 10 Domestic Animals. U.S. Federal Register, Vol. 43, paragraph 163.83-3, adopted November 1982.

[3] = in vivo
Procedure: as §1

[4] = system: Eimeria spp. (principal species E. ovinoidalis and E. crandallis); test: Field trial, treatment of natural coccidiosis infections of grazing lambs; assay type: in vivo, Sheep; settings: 5% w/v suspension as drench on day 7; toltrazuril 20 mg/kg, ponazuril 10 and 20 mg/kg; low infection pressure
Procedure: B. Field Trial of the Efficacy of Ponazuril Compared with Toltrazuril for the Treatment of Natural Infections of Grazing Lambs with Coccidiosis:
The aim of the trials was to compare toltrazuril and ponazuril for efficacy on natural infections with pathogens of the Eimeria family.
The active ingredients were compared in three consecutive experiments: • Experiment 1: untreated control—toltrazuril 20 mg/kg—ponazuril 20 mg/kg • Experiment 2: untreated control—ponazuril 20 mg/kg • Experiment 3: untreated control—toltrazuril 20 mg/kg—ponazuril 10 mg/kg.
The oocyst excretion and the consistency of the faeces were used as main parameters. The weight of the stock was likewise checked occasionally.

[5] = system: Eimeria tenella, E. maxima and E. acervulina; test: Efficacy of ponazuril on artificially induced mixed infection of chickens, cage housing; assay type: in vivo
Procedure: Groups each of 44 birds (4 replicates per treatment of 11 birds in each case) were formed and, on day 14, infected with sporulated oocysts. Ponazuril was administered each day on day 10-24 or 17-24. Three dosages in the feed were used in both treatment periods: 5 ppm, 10 ppm and 20 ppm. The result of the treatment was determined by various clinical and parasitological parameters, including the mortality caused by the coccidiosis and the oocyst excretion in the faeces.

Isospora suis [6] = settings: coccidiosis (Isospora suis) in pigs; cited from earlier work

Structure (SMILES)	prevention of disease (Isospora suis [1])	NOEL [2]	LD50 rat, oral [2]	NOEL ([3]; dog)	NOEL ([3]; rabbit)	NOEL ([3]; rat)	NOEL ([3]; rat, 90 days)	efficacy (oocyst excretion, consistency of the faeces) [4]	other results
CCCc1ncc(C[n+]2ccccc2C)c(N)n1 [amprolium]	not possible to prevent disease	–	–	–	–	–	–	–	–
O=C1OCCN1/N=C/c1ccc([N+](=O)[O-])o1 [furazolidone]	not possible to prevent disease	–	–	–	–	–	–	–	–
CC[C@@]1([C@@H]2O[C@@H]([C@H]3O[C@@](O)(CO)[C@H](C)C[C@@H]3C)C[C@@H]2C)CC[C@H]([C@]2(C)CC[C@]3(C[C@H](O)[C@@H](C)[C@@H]([C@@H](C)[C@@H](OC)[C@H](C)C(=O)O)O3)O2)O1 [monensin]	not possible to prevent disease	–	–	–	–	–	–	–	–
Cc1cc(-n2c(=O)[nH]c(=O)n(C)c2=O)ccc1Oc1ccc(S(=O)(=O)C(F)(F)F)cc1 [ponazuril]	–	5000 mg/kg of body weight	>5000 mg/kg of body weight	8.3 mg/kg of body weight	30 mg/kg of body weight	90 mg/kg of body weight	11.2 mg/kg of body weight	completely effective	control of the infection ([5]; 5, 10 and 20 ppm in the feed, daily on day 10-24 or 17-24, infection day 14): possible to control the infection with all dosages and treatment schedules; parasitological findings (oocyst excretion and number of lesions) ([5]; early start of the treatment): reduced the parasitological findings significantly; technical parameters (body weight gain and feed conversion) ([5]; early start of the treatment): improved the technical parameters; dosage with best results ([5]; highest dosage, 20 mg of ponazuril in the feed (approx. 3.5 mg/kg of body weight and day)): best results
Cc1cc(-n2c(=O)[nH]c(=O)n(C)c2=O)ccc1Oc1ccc(SC(F)(F)F)cc1 [toltrazuril]	–	<1000 mg/kg of body weight	1600-5000 mg/kg mg/kg of body weight	1.5 mg/kg of body weight	2.0 mg/kg of body weight	1.0 mg/kg of body weight	1.1 mg/kg of body weight	completely effective	suitability for treating coccidiosis (Isospora suis [6]): suitable for treating coccidiosis
